Solubility data for one compound are collected here from EP0662819B1, “AN ANTIVIRALLY ACTIVE PHARMACEUTICAL OIL-IN-WATER EMULSION CONTAINING 9-[(2-HYDROXYETHOXY)METHYL]GUANINE (ACYCLOVIR) OR A SALT OR ESTER THEREOF” (A/S GEA Farmaceutisk Fabrik, priority 1992, dated 1994).

As a reminder, the solubility is the concentration that dissolves in the medium under given conditions.

Converted amounts (≈) assume the structure as drawn.

The series in a line: Solubility of acyclovir in glycerol formal/water and glycerol formal/propylene glycol/water mixtures. Type of series: physicochemical. Conditions: room temperature. On the procedure: A surplus of acyclovir is added to glycerol formal/water mixtures and glycerol formal/propylene glycol/water mixtures at room temperature, and the mixtures are then stirred for 2 hours and filtered. Subsequent to adequate dilution with 0.1 N NaOH the solutions are spectrophotometrically measured at 260 nm against 0.1 N NaOH. A 0.01% solution of acyclovir in 0.1 N NaOH is used as standard.

For the compound `Nc1nc2c(ncn2COCCO)c(=O)[nH]1` [acyclovir, 9-[(2-hydroxyethoxy)methyl]guanine], the solubility at 2 h (0 percent by volume glycerol formal in water, stirred 2 hours) amounted to 1170 µg/mL (≈ 5.2 mM); the solubility at 2 h (10% glycerol formal in water, organic solvent or mixture, 10 percent by volume glycerol formal in water, stirred 2 hours) was 1630 µg/mL (≈ 7.24 mM); the solubility at 2 h (25% glycerol formal in water, organic solvent or mixture, 25 percent by volume glycerol formal in water, stirred 2 hours) was determined as 2640 µg/mL (≈ 11.7 mM); the solubility at 2 h (50% glycerol formal in water, organic solvent or mixture, 50 percent by volume glycerol formal in water, stirred 2 hours) stood at 4370 µg/mL (≈ 19.4 mM); the solubility at 2 h (60% glycerol formal in water, organic solvent or mixture, 60 percent by volume glycerol formal in water, stirred 2 hours) turned out to be 4670 µg/mL (≈ 20.7 mM); the solubility at 2 h (75% glycerol formal in water, organic solvent or mixture, 75 percent by volume glycerol formal in water, stirred 2 hours) was found to be 4150 µg/mL (≈ 18.4 mM). Further, the solubility at 2 h is 2970 µg/mL (≈ 13.2 mM) (90% glycerol formal in water, organic solvent or mixture, 90 percent by volume glycerol formal in water, stirred 2 hours); 5730 µg/mL (≈ 25.4 mM) (glycerol formal/water 40/20, organic solvent or mixture, Glycerol formal/propylene glycol/water 40/0/20 g/g/ml); 3270 µg/mL (≈ 14.5 mM) (organic solvent or mixture, 100 percent by volume glycerol formal, stirred 2 hours); 4710 µg/mL (≈ 20.9 mM) (organic solvent or mixture, Glycerol formal/propylene glycol/water 11/29/20 g/g/ml); 4600 µg/mL (≈ 20.4 mM) (organic solvent or mixture, Glycerol formal/propylene glycol/water 20/20/20 g/g/ml); 5200 µg/mL (≈ 23.1 mM) (organic solvent or mixture, Glycerol formal/propylene glycol/water 30/10/20 g/g/ml). For the same compound, the solubility at 2 h (propylene glycol/water 40/20, organic solvent or mixture, Glycerol formal/propylene glycol/water 0/40/20 g/g/ml) is 3440 µg/mL (≈ 15.3 mM).
